Test results taken from US10562869B2, “Oxadiazole compounds” (REMYND NV, priority 2014, dated 2020).

What was measured:
db/db mice = assay: In vivo evaluation in db/db mice (type 2 diabetes model); settings: 15 mg/kg IP, vs vehicle
Excerpt: For in vivo evaluation of compound efficacy, male BKS.Cg-+Leprdb/Leprdb/OlaHsd mice (db/db mice—Harlan) were used. The db/db phenotype results from a mutation in the leptin receptor gene, leading to a splice variant (Chen, Charlat et al. 1996; Lee, Proenca et al. 1996). The development of type 2 diabetes in db/db mice is associated with reduced insulin levels due to progressive β-cell failure following an initial period of hypersecretion of insulin. Since these mice develop type 2 diabetes in a manner related to pathology development in humans, and the model is accepted as in vivo model for evaluation of novel anti-diabetic treatments by the Food and Drug Administration (FDA, US), it is a highly relevant model for testing candidate drugs for efficacy.
Compounds were administered intraperitoneal (IP) or oral (PO) at a dose of maximally 50 mg/kg. Mice were subjected to metabolic analysis weekly or bi-weekly. These tests included but were not limited to determination of fasting (5 hrs) and non-fasting blood glucose levels, plasma insulin levels, % glycated hemoglobin (HbA1c) levels, glucose tolerance test and insulin sensitivity test.

INS-1E cells = assay: Cytokine-induced caspase-3/7 activation in INS-1E cells (beta cell stress/apoptosis model, Caspase-Glo 3/7); assay type: cell-based; settings: Rattus norvegicus, cytokine mix (IFN-γ, IL-1β, TNF-α), 24 hours, caspase 3/7 activity, read-out: CYT EC50
Excerpt: The INS-1E cell line, a rat insulinoma cell line, has been characterized extensively. INS-1E cells respond to glucose by secreting insulin and, unlike most other immortalized β-cell lines, they do this in a consistent manner over time. The cells are sensitive to hyperglycemia-, free fatty acid (FFA)-, and cytokine-induced stress. Prolonged stress ultimately leads to induction of apoptotic pathways and, if stress is not counter-acted, to apoptosis. Caspase-3 and -7 play a central role downstream where various apoptotic pathways merge. As such, activation (i.e. cleavage) of these caspases forms a relevant primary read-out to evaluate protective activity of compounds against stress-induced apoptosis.
To evaluate the efficacy of different compounds to prevent induction of apoptosis, an in vitro screen was developed in which INS-1E cells were exposed to a cytokine mix (IFN-γ, 5 ng/ml; IL-1β, 20 pg/ml; TNF-α, 0.25 ng/ml). The degree of induction of apoptosis was evaluated using a substrate for cleaved caspase-3 and -7, i.e. a proluminescent caspase-3/7 DEVD aminoluciferin substrate with a thermostable luciferase (Caspase-Glo® 3/7 assay; Promega, cat. G8092).
On day 0, INS-1E cells were plated in a white-walled 96-well microplate (Greiner, cat. 655098) at 20,000 cells per well in 100 μl complete medium (RPMI containing 11 mM glucose supplemented with 5% FCS, 100 IU/ml penicillin, 100 μg/ml streptomycin, 10 mM HEPES, 1 mM Sodium Pyruvate and 50 μM 2-Mercapto-ethanol). On day 2, 100 μl medium containing cytokines and compound dissolved in DMSO was added to the cells. Wells without cytokines containing DMSO and wells with cytokines and DMSO were included to evaluate the degree of caspase 3/7 activation by the cytokine mix. After 24 hours exposure to cytokines and/or compound, Caspase-Glo® 3/7 reagent was added to the cells and caspase activity was determined by measuring luminescence.
To evaluate compound efficacy, the “toxicity window” was calculated by subtracting caspase activity of wells without stressor from activity of wells with stressor but without compound. The amount of caspase activity in the latter wells was normalized to 1 and used as reference. Subsequently, caspase activity in the wells with stressor and varying concentrations of compound was calculated relative to the wells without compound. Plotting caspase activity vs the log 10 of the concentration of compound permitted calculation of the EC50 values for the compounds which typically lied between 0.0001 and 10 μM. Compounds with an EC50<10 μM were considered active.

M17_3SYN cells = assay: Paraquat-induced cytotoxicity (LDH) in α-synuclein over-expressing M17_3SYN neuroblastoma cells; assay type: cell-based, human; settings: Homo sapiens, Neuroblastoma cell, 48 h, toxicity inhibition (LDH) in M17_3SYN cells challenged with 6 mM paraquat, 2 days; read-out: SYN EC50
Summary of the method: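 Human BE-M17 neuroblastoma cells stably overexpressing wild-type α-synuclein challenged with paraquat (final 6 mM) for 2 days at 37 °C alongside compounds over a concentration range. Cytotoxicity as LDH released relative to total LDH; EC50 from dose-dependent inhibition curve.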

| SMILES | Plasma insulin levels (db/db mice; after 6 weeks of treatment, FIG. 1C) | weight gain (non-fasted body weight) (db/db mice; FIG. 1A) | Fasted blood glucose levels (db/db mice; FIG. 1B) | EC50 (INS-1E cells) | EC50 (M17_3SYN cells) |
| --- | --- | --- | --- | --- | --- |
| CSc1ccc(S(=O)(=O)N2CCN(c3nc(C4(c5ccc(F)cc5)CC4)no3)CC2)cc1 [Cmpd110, 1-{3-[1-(4-Fluoro-phenyl)-cyclopropyl]-[1,2,4]oxadiazol-5-yl}-4-(4-methylsulfanyl-benzenesulfonyl)-piperazine] | significantly higher | increased | significantly lower | 10 nM | 30 nM |
| COc1ccc(S(=O)(=O)N2CCN(c3nc(C4(c5ccccc5)CC4)no3)CC2)cc1 [Cmpd120, 1-(4-Methoxy-benzenesulfonyl)-4-[3-(1-phenyl-cyclopropyl)-[1,2,4]oxadiazol-5-yl]-piperazine] | – | – | – | 40 nM | 4 nM |
| CCOc1ccc(S(=O)(=O)N2CCN(c3nc(C4(c5ccc(F)cc5)CC4)no3)CC2)cc1 [Cmpd106, 1-(4-Ethoxy-benzenesulfonyl)-4-{3-[1-(4-fluoro-phenyl)-cyclopropyl]-[1,2,4]oxadiazol-5-yl}-piperazine] | – | – | – | 99 nM | 65 nM |
| CSc1ccc(S(=O)(=O)N2CCN(c3nc(C4(c5ccccc5)CC4)no3)CC2)cc1 [Cmpd126, 1-(4-Methylsulfanyl-benzenesulfonyl)-4-[3-(1-phenyl-cyclopropyl)-[1,2,4]oxadiazol-5-yl]-piperazine] | – | – | – | 28 nM | 7 nM |
| CSc1ccc(S(=O)(=O)N2CCN(c3nc(C(F)(F)c4ccc(Cl)cc4)no3)CC2)cc1 [Cmpd145, 1-{3-[(4-Chloro-phenyl)-difluoro-methyl]-[1,2,4]oxadiazol-5-yl}-4-(4-methylsulfanyl-benzenesulfonyl)-piperazine] | – | – | – | 82 nM | 15 nM |
| O=S(=O)(c1ccc(OC(F)F)cc1)N1CCN(c2nc(C3(c4ccccc4)CC3)no2)CC1 [Cmpd122, 1-(4-Difluoromethoxy-benzenesulfonyl)-4-[3-(1-phenyl-cyclopropyl)-[1,2,4]oxadiazol-5-yl]-piperazine] | – | – | – | 43 nM | 9 nM |
| COc1ccc(S(=O)(=O)N2CCC3(CC2)CN(c2nc(CC(F)(F)F)no2)C3)cc1 [Cmpd214, 5-(7-((4-Methoxyphenyl)sulfonyl)-2,7-diazaspiro[3.5]nonan-2-yl)-3-(2,2,2-trifluoroethyl)-1,2,4-oxadiazole] | – | – | – | 55 nM | 164 nM |
| COc1ccc(S(=O)(=O)N2CCN(c3nc(COc4ccc(F)cc4)no3)CC2)cc1 [Cmpd206, 3-((4-Fluorophenoxy)methyl)-5-(4-((4-methoxyphenyl)sulfonyl)piperazin-1-yl)-1,2,4-oxadiazole] | – | – | – | 189 nM | 22 nM |
